# Assays:
# [1] = target: T1, GST-tagged KRAS G12D (2-169) (Homo sapiens, UniProt P01116, G12D); assay: Nucleotide exchange assay (NEA), HTRF of SOS-mediated GTP-DY-647P1 binding; type: biochemical; settings: 5 nM GST-KRAS G12D, 20 nM SOScat, 150 nM GTP; compound 1 h at RT
# T1 construct: GST-tagged KRAS^G12D (2-169, Reaction Biology, MSC-11-539); purchased Reaction Biology MSC-11-539 (KRAS G12D); MSC-11-502 (SOS1cat)
# From the text: This activity is tightly regulated by GTPase activating proteins (GAPs) and guanine nucleotide exchange factors (GEFs). GEFs, such as SOS1/2, activate Ras proteins by exchanging GDP for GTP, thus returning Ras to its active conformation (Simanshu, Nissley, & McCormick, 2017). […] Homogenous time resolved fluorescence (HTRF) was used to detect SOS-mediated binding of a fluorescent GTP analog, GTP-DY-647P1 (Jena Biosciences NU-820-647P1) to GST-tagged KRAS^G12D (2-169, Reaction Biology, MSC-11-539).
# GST-tagged KRAS^G12D (2-169) and anti-GST MAb Tb Cryptate Gold (CisBio 61GSTTLB) were diluted into assay buffer (20 mM HEPES, pH 7.3, 150 mM NaCl, 5 mM MgCl2, 0.05% BSA 0.0025% NP40, 1 mM DTT) to prepare a 2.5× donor solution. 5× compound was added to the protein mixture and incubated for 1 h at RT. 2.5× acceptor solution containing SOS1cat (564-1049, Reaction Biology MSC-11-502) and GTP-DY-647P1 were then added to the donor KRAS mixture such that the final concentration of the reaction contained 5 nM GST-tagged KRAS^G12D (2-169), 20 nM SOScat, and 150 nM GTP. The reaction was monitored using at RT with the Envision multimode plate reader (Ex/Em 337/665, […]) up to 90 minutes at 5 minute intervals. Data was blanked to reactions without SOS1 and % inhibition was calculated such that DMSO only=0% and blank=100%. Curve fitting was done using a 4 parameter fit. NEA KRAS G12D ID50 (uM) values of selected compounds are depicted in Table 2 with compounds having a value<0.01 uM as ++++; >0.01 uM to 0.1 uM as +++; >0.1 uM to 1 uM as ++; >1 uM to 20 uM as +; and >20 uM as NA.
# KRAS G12D/RAF1 = target: T2, KRAS G12D/RAF1 (Homo sapiens, UniProt P01116, G12D); assay: Protein-protein interaction (PPI) HTRF assay KRAS G12D/RAF1; type: binding; settings: KRAS G12D/RAF1, GppNHp-loaded KRAS; 30 minutes pre-incubation
# T2 construct: KRAS (1-169) proteins were expressed in E. coli at 18° C; His6-MBP (N, cleaved yes); made in house; host or cells: E. coli
# T2 sequence (P01116 1-169 isoform P01116-2 G12D): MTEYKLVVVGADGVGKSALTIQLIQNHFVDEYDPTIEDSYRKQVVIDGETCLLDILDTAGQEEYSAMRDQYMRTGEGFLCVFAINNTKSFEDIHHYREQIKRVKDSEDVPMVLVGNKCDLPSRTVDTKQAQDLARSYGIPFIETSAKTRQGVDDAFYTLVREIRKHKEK
# Method: Biotinylated KRAS wt and KRAS G12DNV proteins were expressed and purified in conditions similar to those previously reported (Tran, et al., 2021) (Zhang, et al., 2020). Briefly, KRAS (1-169) proteins were expressed in E. coli at 18° C. with an upstream TEV cleavage site (ENLFYQS) followed an Avi tag sequence ([…]). KIRAS expression constructs contained both a His6 and maltose-binding protein (MBP) tags at the N-terminus for Ni-NTA column purification prior to overnight TEV cleavage and MBP column purification. The avi-tagged NRAS expression construct contained both a His6 tag and SUMO cleavage sige at the N-terminus for Ni-NTA column purification followed by His-ULP1 digestion overnight. All avi-tagged RAS proteins were dialyzed into buffer containing ATP, biotin, and BirA followed by purification over a second Ni-NTA column and then run over a size exclusion HiLoad™ 26/600 Superdex™ column in 20 mM HEPES, pH 7.5, 300 mM NaCl, 5 mM MgCl2, and 1 mM TCEP. Fractions containing the protein of interest were pooled, concentrated, and confirmed by intact mass spectrometry. To prepare ‘GTP’ loaded KRAS and NRAS, biotinylated KRAS or NRAS was nucleotide exchanged from GDP-bound protein to GppNHp-bound (Jena Biosciences, NU-401-50) protein in the presence of alkaline phosphatase and excess GppNHp as previously described and the resulting nucleotide content was confirmed by HPLC reverse phase analytical chromatography (Donohue, et al., 2019) (Tran, et al., 2021).
# His-tagged RAF1 (52-131) was similarly expressed in E. coli at 18° C. overnight with an upstream TEV cleavage site. His-tagged RAF1 expression construct contained both a His6 and MBP tags at the N-terminus for Ni-NTA column purification followed by MBP-tagged TEV digestion overnight. RAF1 protein samples were further purified over a MBP column followed by a Ni-NTA column and a second MBP column. The fractions containing the protein of interest were pooled, concentrated, and further purified over a HiLoad™ 16/600 Superdex™ 75 pg size exclusion column into 20 mM HEPES, pH8.0, 200 mM NaCl, 5 mM TCEP.
# When RAS proteins are in the active GTP-bound conformation, they bind the effector protein RAF1 at the N-terminus Ras-binding domain (RBD, residues 52-131) (Tran, et al., 2021). Homogenous time resolved fluorescence (HTRF) was used to monitor the interaction between wt or mutant KRAS and RAF1 or wt NRAS and RAFT. Compounds were assayed in the presence of KRAS G12D/V and RAF1 versus wt KRAS to assess activity against mutant and w.t. KRAS. Similarly, compounds were then assayed in the presence of w.t. NRAS and RAF1 to assess RAS isoform selectivity. In all assay formats, His-tagged RAF1 protein was incubated with the HTRF donor, anti-6His Tb Cryptate gold (Cisbio 61DB10RDF), and biotinylated RAS proteins were incubated with the HTRF acceptor, streptavidin-d2 (CisBio 610SADLA). The intensity of the fluorescence signal emitted is proportional to binding between the two proteins. The donor solution was prepared by mixing 16 nM His-tagged RAF1 in protein dilution buffer with 1:100 anti-6His Tb cryptate in PPI-Terbium detection buffer. 16 nM biotinylated RAS protein was diluted into protein dilution buffer (50 mM Tris-HCl pH 7.5, 150 mM NaCl, 0.1 mM MgCl2, 1 mM TCEP, 0.005% Tween20) and mixed with 1:2000 Streptavidin-d2 diluted in PPI-Terbium detection buffer (CisBio 61DB10RDF). 50× compound in DMSO was mixed with 16 nM KRAS-acceptor solution and incubated for 30 minutes at room temperature. After compound pre-incubation with KRAS, the RAF1 donor solution was added to the KRAS-acceptor solution and incubated for 1 hour at room temperature. The fluorescence signal emitted was monitored at 665 nm and 615 nm using an Envision multimode plate reader. The HTRF ratio (665/615) was calculated and normalized to 0% inhibition in the absence of compound and 100% inhibition in the presence of untagged RAF1 protein. […]
# T1 sequence (P01116 2-169 isoform P01116-2 G12D): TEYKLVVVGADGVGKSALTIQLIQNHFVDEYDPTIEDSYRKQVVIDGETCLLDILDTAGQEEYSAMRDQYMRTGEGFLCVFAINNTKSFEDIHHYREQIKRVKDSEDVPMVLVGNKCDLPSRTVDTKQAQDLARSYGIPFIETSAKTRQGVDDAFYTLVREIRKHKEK
SMILES,IC50 [1] [nM],IC50 (KRAS G12D/RAF1) [nM]
"O=C1NC(=O)C2(CCCN(c3nc(OC[C@@]45CCCN4C[C@H](F)C5)nc4c3COC3(CCc5ccc(O)cc53)C4)C2)N1 (mixture of isomers) [Compound 30, 9-[6′-hydroxy-2-[[rac-(2R,8S)-2-fluoro-1,2,3,5,6,7-hexahydropyrrolizin-8-yl]methoxy]spiro[5,8-dihydropyrano[4,3-d]pyrimidine-7,1′-indane]-4-yl]-1,3,9-triazaspiro[4.5]decane-2,4-dione]",1000 to 20000,> 100000
"C[C@@]1(O)CCCN(c2nc(OC[C@@]34CCCN3C[C@H](F)C4)nc3c2COC2(CCc4c(Cl)cccc42)C3)C1 (single isomer, unassigned) [Compound 23A, (3R)-1-[(7*)-4′-chloro-2-[[(2R,8S)-2-fluoro-1,2,3,5,6,7-hexahydropyrrolizin-8-yl]methoxy]spiro[5,8-dihydropyrano[4,3-d]pyrimidine-7,1′-indane]-4-yl]-3-methyl-piperidin-3-ol]",100 to 1000,> 100000
"CN(C)C(=O)c1cc2n(n1)CCCN(c1nc(OC[C@@]34CCCN3C[C@H](F)C4)nc3c1COC1(CCCc4ccc(O)c(Cl)c41)C3)C2 (stereo partly drawn) [Compound 40, 5-[8′-chloro-7′-hydroxy-2-[[(2R,8S)-2-fluoro-1,2,3,5,6,7-hexahydropyrrolizin-8-yl]methoxy]spiro[5,8-dihydropyrano[4,3-d]pyrimidine-7,1′-tetralin]-4-yl]-N,N-dimethyl-4,6,7,8-tetrahydropyrazolo[1,5-a][1,4]diazepine-2-carboxamide]",10 to 100,> 100000
"CN1Cc2c(nc(OC[C@@]34CCCN3C[C@H](F)C4)nc2N2CCCn3nc(C(=O)O)c(Cl)c3C2)C[C@]12CCCc1ccccc12 [Compound 78, 3-chloro-5-[(7S)-2-[[(2R,8S)-2-fluoro-1,2,3,5,6,7-hexahydropyrrolizin-8-yl]methoxy]-6-methyl-spiro[5,8-dihydropyrido[4,3-d]pyrimidine-7,1′-tetralin]-4-yl]-4,6,7,8-tetrahydropyrazolo[1,5-a][1,4]diazepine-2-carboxylic acid]",< 10,10000 to 100000
"CN(C)C(=O)c1nn2c(c1C#N)CN(c1nc(OC[C@@]34CCCN3C[C@H](F)C4)nc3c1CN(C)[C@@]1(CCc4cccc(F)c41)C3)CCC2 [Compound 76, 3-cyano-5-[(7S)-7′-fluoro-2-[[(2R,8S)-2-fluoro-1,2,3,5,6,7-hexahydropyrrolizin-8-yl]methoxy]-6-methyl-spiro[5,8-dihydropyrido[4,3-d]pyrimidine-7,1′-indane]-4-yl]-N,N-dimethyl-4,6,7,8-tetrahydropyrazolo[1,5-a][1,4]diazepine-2-carboxamide]",< 10,10000 to 100000
"CN1Cc2c(nc(OC[C@@]34CCCN3C[C@H](F)C4)nc2N2CCCn3nc(-c4nc5ccccc5n4C)cc3C2)C[C@]12CCCc1ccccc12 [Compound 82, (7S)-2-[[(2R,8S)-2-fluoro-1,2,3,5,6,7-hexahydropyrrolizin-8-yl]methoxy]-6-methyl-4-[2-(1-methylbenzimidazol-2-yl)-4,6,7,8-tetrahydropyrazolo[1,5-a][1,4]diazepin-5-yl]spiro[5,8-dihydropyrido[4,3-d]pyrimidine-7,1′-tetralin]]",10 to 100,> 100000
"CN(C)C(=O)c1nn2c(c1C#N)CN(c1nc(OC[C@@]34CCCN3C[C@H](F)C4)nc3c1CN(C)[C@@]1(CCCc4ccccc41)C3)CCC2 [Compound 77, 3-cyano-5-[(7S)-2-[[(2R,8S)-2-fluoro-1,2,3,5,6,7-hexahydropyrrolizin-8-yl]methoxy]-6-methyl-spiro[5,8-dihydropyrido[4,3-d]pyrimidine-7,1′-tetralin]-4-yl]-N,N-dimethyl-4,6,7,8-tetrahydropyrazolo[1,5-a][1,4]diazepine-2-carboxamide]",< 10,10000 to 100000
"CN(O)C(=O)c1cc2n(n1)CCCN(c1nc(OC[C@@]34CCCN3C[C@H](F)C4)nc3c1CO[C@@]1(CCc4c(Cl)cccc41)C3)C2 [Compound 37, 5-[(7S)-4′-chloro-2-[[(2R,8S)-2-fluoro-1,2,3,5,6,7-hexahydropyrrolizin-8-yl]methoxy]spiro[5,8-dihydropyrano[4,3-d]pyrimidine-7,1′-indane]-4-yl]-N-hydroxy-N-methyl-4,6,7,8-tetrahydropyrazolo[1,5-a][1,4]diazepine-2-carboxamide]",< 10,> 100000
"Cc1noc(-c2cc3n(n2)CCCN(c2nc(OC[C@@]45CCCN4C[C@H](F)C5)nc4c2CN(C)[C@@]2(CCCc5ccccc52)C4)C3)n1 [Compound 74, 5-[5-[(7S)-2-[[(2R,8S)-2-fluoro-1,2,3,5,6,7-hexahydropyrrolizin-8-yl]methoxy]-6-methyl-spiro[5,8-dihydropyrido[4,3-d]pyrimidine-7,1′-tetralin]-4-yl]-4,6,7,8-tetrahydropyrazolo[1,5-a][1,4]diazepin-2-yl]-3-methyl-1,2,4-oxadiazole]",10 to 100,> 100000
"CONC(=O)c1cc2n(n1)CCCN(c1nc(OC[C@@]34CCCN3C[C@H](F)C4)nc3c1CO[C@@]1(CCc4c(Cl)cccc41)C3)C2 [Compound 31, N-methoxy-5-[(7S)-4′-chloro-2-[[(2R,8S)-2-fluoro-1,2,3,5,6,7-hexahydropyrrolizin-8-yl]methoxy]spiro[5,8-dihydropyrano[4,3-d]pyrimidine-7,1′-indane]-4-yl]-4,6,7,8-tetrahydropyrazolo[1,5-a][1,4]diazepine-2-carboxamide]",10 to 100,> 100000
